This is an account of results in US8618139B2, “Oxadiazole derivatives as sphingosine 1-phosphate (S1P) receptor modulators” (Allergan, Inc., priority 2010, dated 2013).

The experiment concerns the target T1, human S1P1 receptor (Homo sapiens, UniProt P21453).
T1 construct: expressed in transfected cells; membranes used
The experiment can be described thus: GTP γ35S binding assay for S1P1 activity. It is filed as biochemical. The settings on record: activity potency from GTP γ35S binding; membranes, test compounds 0.08 to 5,000 nM, 30 min at 25° C. As for the experimental part: Compounds were synthesized and tested for S1P1 activity using the GTP γ^35S binding assay. These compounds may be assessed for their ability to activate or block activation of the human S1P1 receptor in cells stably expressing the S1P1 receptor.
GTP γ^35S binding was measured in the medium containing (mM) HEPES 25, pH 7.4, MgCl2 10, NaCl 100, dithitothreitol 0.5, digitonin 0.003%, 0.2 nM GTP γ^35S, and 5 μg membrane protein in a volume of 150 μl. Test compounds were included in the concentration range from 0.08 to 5,000 nM unless indicated otherwise. Membranes were incubated with 100 μM 5′-adenylylimmidodiphosphate for 30 min, and subsequently with 10 μM GDP for 10 min on ice. Drug solutions and membrane were mixed, and then reactions were initiated by adding GTP γ^35S and continued for 30 min at 25° C. Reaction mixtures were filtered over Whatman GF/B filters under vacuum, and washed three times with 3 mL of ice-cold buffer (HEPES 25, pH7.4, MgCl2 10 and NaCl 100). Filters were dried and mixed with scintillant, and counted for ^35S activity using a β-counter. Agonist-induced GTP γ^35S binding was obtained by subtracting that in the absence of agonist. Binding data were analyzed using a non-linear regression method. In case of antagonist assay, the reaction mixture contained 10 nM S1P in the presence of test antagonist at concentrations ranging from 0.08 to 5000 nM.

Each structure is given as a SMILES string.

T1 sequence (P21453 whole entry): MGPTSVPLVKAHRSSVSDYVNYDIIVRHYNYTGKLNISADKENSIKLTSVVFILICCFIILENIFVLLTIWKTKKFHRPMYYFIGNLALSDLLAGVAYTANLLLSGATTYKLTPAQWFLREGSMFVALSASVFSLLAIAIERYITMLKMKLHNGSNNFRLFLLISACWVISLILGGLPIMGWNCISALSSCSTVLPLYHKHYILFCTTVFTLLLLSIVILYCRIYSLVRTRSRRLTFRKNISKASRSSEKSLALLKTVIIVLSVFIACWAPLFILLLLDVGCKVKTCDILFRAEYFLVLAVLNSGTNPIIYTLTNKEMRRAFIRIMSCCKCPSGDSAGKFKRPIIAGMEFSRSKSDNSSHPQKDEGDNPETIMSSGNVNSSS

`CNc1ncccc1-c1noc(C(Sc2ccccc2)c2ccccc2)n1` (stereo not shown) [Compound 27, N-methyl-3-(5-(phenyl(phenylthio)methyl)-1,2,4-oxadiazol-3-yl)pyridin-2-amine] yielded an EC50 of 1320 nM.

On to `CNc1ncccc1-c1noc(C(Nc2ccc(C)c(C)c2)c2cccc(Cl)c2)n1` (stereo not shown) [Compound 1, 3-(5-((3-chlorophenyl)((3,4-dimethylphenyl)amino)methyl)-1,2,4-oxadiazol-3-yl)-N-methylpyridin-2-amine], for which a half-maximal response (EC50) required 336 nM.

`CNc1ncccc1-c1noc(C(Oc2cccc(C)c2)c2ccccc2Cl)n1` (stereo not shown) [Compound 35, 3-(5-((2-chlorophenyl)(m-tolyloxy)methyll)-1,2,4-oxadiazol-3-yl)-N-methylpyridin-2-amine] registered an EC50 of 2140 nM.

Regarding `CNc1ncccc1-c1noc(C(Oc2ccc(C)c(C)c2)c2ccc(Cl)cc2)n1` (stereo not shown) [Compound 15, 3-(5-((4-chlorophenyl)(3,4-dimethylphenoxy)methyl)-1,2,4-oxadiazol-3-yl)-N-methylpyridin-2-amine], the EC50 worked out at 509 nM.

`CNc1ncccc1-c1noc(C(Sc2ccoc2C)c2cccc(Cl)c2)n1` (stereo not shown) [Compound 13, 3-(5-((3-chlorophenyl)((2-methylfuran-3-yl)thio)methyl)-1,2,4-oxadiazol-3-yl)-N-methylpyridin-2-amine] yielded an EC50 of 1380 nM.

For the molecule `CNc1ncccc1-c1noc(C(Oc2ccc(C)c(C)c2)c2ccccc2Cl)n1` (stereo not shown) [Compound 38, 3-(5-((2-chlorophenyl)(3,4-dimethylphenoxy)methyl)-1,2,4-oxadiazol-3-yl)-N-methylpyridin-2-amine], the EC50 stood at 1650 nM.

`CNc1ncccc1-c1noc(C(Oc2ccc(C)cc2)c2ccccc2Cl)n1` (stereo not shown) [Compound 30, 3-(5-((2-chlorophenyl)(p-tolyloxy)methyl)-1,2,4-oxadiazol-3-yl)-N-methylpyridin-2-amine] registered an EC50 of 1920 nM.

Consider `CNc1ncccc1-c1noc(C(Sc2ccc(OC)cc2)c2ccc(Cl)cc2)n1` (stereo not shown) [Compound 20, 3-(5-((4-chlorophenyl)((4-methoxyphenyl)thio)methyl)-1,2,4-oxadiazol-3-yl)-N-methylpyridin-2-amine], for which the midpoint of the response, the EC50, lay at 2560 nM.

In turn, `CNc1ncccc1-c1noc(C(SC2CCCCC2)c2cccc(C(F)(F)F)c2)n1` (stereo not shown) [Compound 6, 3-(5-((cyclohexylthio)(3-(trifluoromethyl)phenyl)methyl)-1,2,4-oxadiazol-3-yl)-N-methylpyridin-2-amine] registered an EC50 of 3010 nM.

Turning to `CNc1ncccc1-c1noc(C(Sc2ccc(C)cc2C)c2ccc(Cl)cc2)n1` (stereo not shown) [Compound 16, 3-(5-((4-chlorophenyl)((2,4-dimethylphenyl)thio)methyl)-1,2,4-oxadiazol-3-yl)-N-methylpyridin-2-amine], a half-maximal effect (EC50) was put at 2020 nM.

Consider `CNc1ncccc1-c1noc(C(Sc2ccc(C)c(C)c2)c2cccc(Cl)c2)n1` (stereo not shown) [Compound 5, 3-(5-((3-chlorophenyl)((3,4-dimethylphenyl)thio)methyl)-1,2,4-oxadiazol-3-yl)-N-methylpyridin-2-amine], for which the EC50 worked out at 214 nM. Against the preceding molecule, the EC50 is about 9.4-fold lower.

Consider `CNc1ncccc1-c1noc(C(Sc2ccc(C)c(C)c2)c2cccc(Br)c2)n1` (stereo not shown) [Compound 2, 3-(5-((3-bromophenyl)((3,4-dimethylphenyl)thio)methyl)-1,2,4-oxadiazol-3-yl)-N-methylpyridin-2-amine], for which the concentration giving a half-maximal response (EC50) was 650 nM.

For `CNc1ncccc1-c1noc(C(Sc2ccc(C)c(C)c2)c2cccc(F)c2)n1` (stereo not shown) [Compound 3, 3-(5-(((3,4-dimethylphenyl)thio)(3-fluorophenyl)methyl)-1,2,4-oxadiazol-3-yl)-N-methylpyridin-2-amine], the EC50 is 368 nM.

`CNc1ncccc1-c1noc(C(Oc2ccc(C)c(C)c2)c2cccc(Cl)c2)n1` (stereo not shown) [Compound 7, 3-(5-((3-chlorophenyl)(3,4-dimethylphenoxy)methyl)-1,2,4-oxadiazol-3-yl)-N-methylpyridin-2-amine] yielded an EC50 of 1540 nM.

Regarding `CNc1ncccc1-c1noc(C(Sc2ccc(C)c(C)c2)c2ccc(Cl)c(Cl)c2)n1` (stereo not shown) [Compound 4, 3-(5-((3,4-dichlorophenyl)((3,4-dimethylphenyl)thio)methyl)-1,2,4-oxadiazol-3-yl)-N-methylpyridin-2-amine], a half-maximal response (EC50) required 638 nM.

`CNc1ncccc1-c1noc(C(Oc2ccc(Cl)c(C)c2)c2ccc(Cl)cc2)n1` (stereo not shown) [Compound 21, 3-(5-((4-chloro-3-methylphenoxy)(4-chlorophenyl)methyl)-1,2,4-oxadiazol-3-yl)-N-methylpyridin-2-amine] displayed an EC50 of 2080 nM.

The molecule `CNc1ncccc1-c1noc(C(SC2CCCCC2)c2ccc(Cl)cc2)n1` (stereo not shown) [Compound 17, 3-(5-((4-chlorophenyl)(cyclohexylthio)methyl)-1,2,4-oxadiazol-3-yl)-N-methylpyridin-2-amine] had an EC50 of 550 nM.

`CNc1ncccc1-c1noc(C(Sc2ccc(C)cc2)c2ccc(Cl)cc2)n1` (stereo not shown) [Compound 18, 3-(5-((4-chlorophenyl)(p-tolylthio)methyl)-1,2,4-oxadiazol-3-yl)-N-methylpyridin-2-amine] showed an EC50 of 3190 nM.

Regarding `CNc1ncccc1-c1noc(C(Oc2ccc(C)cc2)c2cccc(Cl)c2)n1` (stereo not shown) [Compound 32, 3-(5-((3-chlorophenyl)(p-tolyloxy)methyl)-1,2,4-oxadiazol-3-yl)-N-methylpyridin-2-amine], the EC50 was determined as 1340 nM.

`CNc1ncccc1-c1noc(C(Oc2ccc(C)cc2)c2ccc(Cl)cc2)n1` (stereo not shown) [Compound 26, 3-(5-((4-chlorophenyl)(p-tolyloxy)methyl)-1,2,4-oxadiazol-3-yl)-N-methylpyridin-2-amine] yielded an EC50 of 3120 nM.

Molecule `CNc1ncccc1-c1noc(C(Nc2ccc(C)c(C)c2)c2ccccc2)n1` (stereo not shown) [Compound 10, 3-(5-(((3,4-dimethylphenyl)amino)(phenyl)methyl)-1,2,4-oxadiazol-3-yl)-N-methylpyridin-2-amine] had a concentration giving a half-maximal response (EC50) of 2390 nM.

`CNc1ncccc1-c1noc(C(Oc2ccc(Cl)cc2)c2ccc(Cl)cc2)n1` (stereo not shown) [Compound 23, 3-(5-((4-chlorophenoxy)(4-chlorophenyl)methyl)-1,2,4-oxadiazol-3-yl)-N-methylpyridin-2-amine]: the midpoint of the response, the EC50, lay at 2050 nM.

The molecule `CNc1ncccc1-c1noc(C(Sc2ccc(C)c(C)c2)c2ccc(Cl)cc2)n1` (stereo not shown) [Compound 22, 3-(5-((4-chlorophenyl)((3,4-dimethylphenyl)thio)methyl)-1,2,4-oxadiazol-3-yl)-N-methylpyridin-2-amine] displayed an EC50 of 241 nM.

Turning to `CNc1ncccc1-c1noc(C(Oc2cccc(Cl)c2)c2ccccc2Cl)n1` (stereo not shown) [Compound 36, 3-(5-((3-chlorophenoxy)(2-chlorophenyl)methyl)-1,2,4-oxadiazol-3-yl)-N-methylpyridin-2-amine], the EC50 is 2730 nM.

Molecule `CNc1ncccc1-c1noc(C(Sc2ccc(C)c(C)c2)c2ccccc2Cl)n1` (stereo not shown) [Compound 9, 3-(5-((2-chlorophenyl)((3,4-dimethylphenyl)thio)methyl)-1,2,4-oxadiazol-3-yl)-N-methylpyridin-2-amine] registered an EC50 of 716 nM.
